Literature values as cited in patent EP2837390A1, “Combined Pharmaceutical Preparation for Use in Treating Neuromuscular Disorders” (Universitäts-Kinderspital beider Basel, priority 2013, dated 2015).

Tested on: mdx mice model
Details: long term supplementation for 17-months

N=C(N)NCCC[C@H](N)C(=O)O [L-arginine]
muscle fibrosis: increased | muscle function: worsened | skeletal deformities: increased
